Test: Terpene concentration (HPLC, GC-FID)
Type: physicochemical
Details: terpene content of hemp distillate + alpha-pinene lipid nanoparticle formulation (Example 34), diluted to theoretical 12 mg/mL CBD
Protocol: A 5 Liter manufacturing batch was analyzed by high pressure liquid chromatography (HPLC) to measure Terpenes present in the sample.
When all ingredients were dissolved, the solvent was removed to form a dried composition. The resulting particle size and zeta potential were determined using a Malvern ZetaSizer and cannabinoid concentrations were determined by UPLC. Terpene concentrations were determined by GC-FID.

| Structure (SMILES) | Measured Concentration (mg/g) of terpene | Measured Concentration (w/w %) of terpene |
| --- | --- | --- |
| C=C1CC/C=C(\C)CC[C@@H]2[C@@H]1CC2(C)C [Beta-Caryophyllene] | 0.026 mg/g | 0.003% |
| C=C1C2CCC(C2)C1(C)C (centres unmarked) [Camphene] | 0.046 mg/g | 0.005% |
| CC1=CCC2C(C1)C2(C)C (centres unmarked) [Carene] | <LOQ | <LOQ |
| C=C1CC[C@H]2O[C@]2(C)CC[C@@H]2[C@@H]1CC2(C)C [Caryophyllene Oxide] | <LOQ | <LOQ |
| CC12CCC(CC1)C(C)(C)O2 [Eucalyptol] | <LOQ | <LOQ |
| CC(C)=CCC/C(C)=C/CO [Geraniol] | <LOQ | <LOQ |
| C/C1=C\CC/C(C)=C/CC(C)(C)/C=C/C1 [Humulene] | <LOQ | <LOQ |
| C=C(C)[C@@H]1CC[C@@H](C)C[C@H]1O [Isopulegol] | <LOQ | <LOQ |
| C=CC(C)(O)CCC=C(C)C (centres unmarked) [Linalool] | <LOQ | <LOQ |
| CC1=CCC(=C(C)C)CC1 [Terpinolene] | <LOQ | <LOQ |
| CC(C)=CCC[C@](C)(O)[C@@H]1CC=C(C)CC1 [alpha-Bisabolol] | 0.062 mg/g | 0.006% |
| C[C@H]1CC[C@@H](C(C)(C)O)CC2=C1CC[C@@H]2C [alpha-Guaiol] | 0.023 mg/g | 0.002% |
| CC1=CCC2CC1C2(C)C (stereo not drawn) [alpha-Pinene] | 5.205 mg/g | 0.521% |
| C=CC(=C)CCC=C(C)C [beta-Myrecene] | <LOQ | <LOQ |
| C=C1CCC2CC1C2(C)C (stereo not drawn) [beta-Pinene] | 0.026 mg/g | 0.003% |
| C=CC(C)(O)CC/C=C(/C)CCC=C(C)C (stereo not drawn) [cis-Nerolidol] | <LOQ | <LOQ |
| C=C(C)[C@H]1CC=C(C)CC1 [delta-Limonene] | <LOQ | <LOQ |
| C=C/C(C)=C/CC=C(C)C [e-Ocimene] | <LOQ | <LOQ |
| Cc1ccc(C(C)C)cc1 [p-Cymene] | <LOQ | <LOQ |
| C=CC(C)(O)CC/C=C(\C)CCC=C(C)C (stereo not drawn) [trans-Nerolidol] | <LOQ | <LOQ |
| CC1=CCC(C(C)C)=CC1 [y-Terpinene] | <LOQ | <LOQ |
| C=C/C(C)=C\CC=C(C)C [z-Ocimene] | <LOQ | <LOQ |

Reference: patent publication US20230210771A1, “COMPOSITIONS FOR THE DELIVERY OF THERAPEUTIC AGENTS AND METHODS OF USE AND MAKING THEREOF” (priority 2020, published 2023)
